This note sets out measurements from patent publication US6596719B1 (Actelio Pharmaceuticals Ltd., priority 1999, dated 2003).

The target in assay [1] is T1, human recombinant ETB receptors (Homo sapiens, UniProt P24530).
T1 construct: expressed in transfected cells; host or cells: CHO cells (microsomal membranes)
T1 sequence (P24530 27-442): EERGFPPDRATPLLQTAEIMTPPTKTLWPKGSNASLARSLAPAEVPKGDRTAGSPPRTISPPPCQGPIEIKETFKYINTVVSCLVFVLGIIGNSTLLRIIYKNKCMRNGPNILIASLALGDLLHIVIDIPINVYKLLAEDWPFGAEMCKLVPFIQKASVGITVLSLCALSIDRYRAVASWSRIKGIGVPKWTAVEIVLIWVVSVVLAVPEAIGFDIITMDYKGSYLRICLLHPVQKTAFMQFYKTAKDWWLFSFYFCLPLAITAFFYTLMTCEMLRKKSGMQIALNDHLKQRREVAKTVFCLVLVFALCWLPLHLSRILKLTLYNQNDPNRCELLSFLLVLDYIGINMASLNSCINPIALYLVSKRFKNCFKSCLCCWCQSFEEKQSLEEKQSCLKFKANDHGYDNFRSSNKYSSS
The assay is described as follows: Inhibition of endothelin binding to membranes from CHO cells carrying human ET receptors (ETB).

The target of a further assay is T2, ETA receptors (Rattus norvegicus, UniProt P26684).
T2 sequence (P26684 21-426): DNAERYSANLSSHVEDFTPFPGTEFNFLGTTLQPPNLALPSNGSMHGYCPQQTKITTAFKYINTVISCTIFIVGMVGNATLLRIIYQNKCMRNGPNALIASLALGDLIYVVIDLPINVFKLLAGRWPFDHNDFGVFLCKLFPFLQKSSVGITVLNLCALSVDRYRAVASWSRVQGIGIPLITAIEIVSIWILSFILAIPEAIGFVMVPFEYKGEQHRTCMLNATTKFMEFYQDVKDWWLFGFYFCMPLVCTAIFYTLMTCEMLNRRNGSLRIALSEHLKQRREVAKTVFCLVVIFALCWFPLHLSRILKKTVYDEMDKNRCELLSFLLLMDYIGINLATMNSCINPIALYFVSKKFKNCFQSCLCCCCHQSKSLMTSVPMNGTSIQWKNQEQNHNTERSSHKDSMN
In words: Inhibition of endothelin-1-induced contractions on isolated rat aortic rings. As to conditions: rat aortic rings, contraction induced by endothelin-1, 10 min incubation.

In assay [2] the target is T3, human recombinant ETA receptors (Homo sapiens, UniProt P25101).
T3 construct: expressed in transfected cells; host or cells: CHO cells (microsomal membranes)
T3 sequence (P25101 21-427): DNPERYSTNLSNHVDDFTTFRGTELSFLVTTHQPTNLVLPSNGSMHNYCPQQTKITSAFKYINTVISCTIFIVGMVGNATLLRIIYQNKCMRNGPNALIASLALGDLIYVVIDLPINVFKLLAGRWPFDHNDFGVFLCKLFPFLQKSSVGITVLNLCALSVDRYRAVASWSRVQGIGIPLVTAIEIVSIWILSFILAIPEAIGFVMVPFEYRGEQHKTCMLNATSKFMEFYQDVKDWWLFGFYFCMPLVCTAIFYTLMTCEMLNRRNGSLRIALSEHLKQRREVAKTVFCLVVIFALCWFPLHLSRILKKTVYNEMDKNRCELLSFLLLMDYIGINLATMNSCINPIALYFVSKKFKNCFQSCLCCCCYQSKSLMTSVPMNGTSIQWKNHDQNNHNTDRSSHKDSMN
In words: Inhibition of endothelin binding to membranes from CHO cells carrying human ET receptors (ETA).

A further assay deals with T4, ETB receptors (Rattus norvegicus, UniProt P21451).
T4 sequence (P21451 27-442): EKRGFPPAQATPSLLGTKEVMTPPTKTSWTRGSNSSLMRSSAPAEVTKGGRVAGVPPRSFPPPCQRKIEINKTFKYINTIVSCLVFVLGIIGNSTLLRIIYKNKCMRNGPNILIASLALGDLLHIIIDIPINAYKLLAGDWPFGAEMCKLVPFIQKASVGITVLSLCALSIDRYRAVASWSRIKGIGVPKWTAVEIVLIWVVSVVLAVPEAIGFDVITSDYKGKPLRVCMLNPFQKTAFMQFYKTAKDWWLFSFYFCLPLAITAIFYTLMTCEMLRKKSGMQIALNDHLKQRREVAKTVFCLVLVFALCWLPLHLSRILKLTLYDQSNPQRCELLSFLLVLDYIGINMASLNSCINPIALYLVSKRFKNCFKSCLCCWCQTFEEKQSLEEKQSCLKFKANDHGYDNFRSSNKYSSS
In words: Inhibition of sarafotoxin S6c-induced contractions on isolated rat tracheal rings. Conditions: rat tracheal rings, contraction induced by sarafotoxin S6c, 10 min incubation.

Consider `CCS(=O)(=O)NCCOc1nc(N2CCOCC2)nc(NS(=O)(=O)c2ccc(C(C)C)cn2)c1Oc1ccccc1OC` [Example 61, 5-isopropyl-N-[6-(2-(ethanesulfonylamino)-ethoxy)-5-(o-methoxyphenoxy)-2-(N-morpholino)-4-pyrimidinyl]-2-pyridine sulfonamide], for which the IC50 (as a rule, the concentration needed to halve the response being measured) in assay [1] was determined as 183 nM; in assay [2] it was 92 nM. The “pA2 value ETA” value at ETA receptors is given as 7.02. For the same compound, the “pA2 value ETB” value at ETB receptors was found to be 6.36.
